The source of these data is patent publication US10744127B2, “MDR-reversing 8-hydroxy-quinoline derivatives” (MAGYAR TUDOMÁNYOS AKADÉMIA TERMÉSZETTUDOMÁNYI KUTATÓKÖZPONT, priority 2016, dated 2020).

For series [1] the following is noted: WO2010138686 and Türk et al. 2009; cited from earlier work.
Another series relates to MES-SA cell line. The series can be described thus: Cytotoxicity, PrestoBlue cell viability assay, parental MES-SA. The following applies: Homo sapiens; parental MES-SA cell line (Table 2a). Format: cell-based. As to the method:
(§1) The human uterine sarcoma cell line MES-SA and its doxorubicin resistant counterpart MES-SA/Dx5 were obtained from ATCC (MES-SA: No. CRL-1976™, MES-SA-Dx5: No. CRL-1977™). MES-SA/Dx5 cells express high levels of P-gp, and therefore are multidrug resistant (MDR). Cells were cultured in DMEM supplemented with 10% FBS, 5 mmol/L glutamine and 50 unit/mL penicillin and streptomycin (Life Technologies).
(§2) Cell survival was measured by the PrestoBlue® Cell Viability Reagent (Life Technologies, USA). Cells were seeded in 100 μl medium at a density of 5000 cells/well in 96-well plates; the serially diluted drug was added the following day. Cells were then incubated for 72 hours at 37° C. in 5% CO2; the drug containing medium was removed, and the PrestoBlue® reagent was added according to the manufacturer's instructions. Fluorescence of the cells was measured by a Perkin Elmer EnSpire multimode plate reader or Perkin Elmer Victor X3 microplate reader. Data were background corrected and normalized to untreated cells. Curves were fitted with the help of Prism software using the sigmoidal dose-response model. Curve fit statistics were used to determine IC50 values. Differences between the IC50 values of the respective cell lines were analyzed by two-sided […] unpaired Student's t test and results were considered statistically significant at a P value of <0.05 (*) or 0.01 (**).

Series [2] deals with MES-SA and multidrug-resistant MES-SA/Dx5 cell line. The series can be described thus: Selective toxicity (ratio of IC50 in MES-SA to IC50 in MES-SA/Dx5) and activity index. Type of series: cell-based, human.
From the text: Compounds having P-gp potentiated MDR-selective activity can be characterized by their inhibitory concentration (IC) with regard to a specific cancer cell line. Usually the IC value is given at a certain percentage ratio of non-inhibited molecules or surviving cells. For example an IC20 value of a compound on a cell line means that at this inhibitory concentration of the compound 80% of the cells are killed whereas 20% of the cells are still viable. A further characteristic of MDR-selective drugs is the selectivity ratio (SR), which is the ratio of the IC value measured in a non-multidrug resistant cell line to (i.e. divided by) the IC value measured in the corresponding transformed, multidrug-resistant cell line. The inverse value, the resistance ratio (RR) is calculated as the ratio of a compound's IC value against a multidrug resistant cell line divided by the parallel IC value of the same compound against a control non-multidrug resistant cell line. The Activity Index (AI) is calculated here as the ratio of the compound's selectivity ratio (SR) and the compound's IC50 value against the resistant cell. The AI reflects the level of simultaneous toxicity and selectivity towards multidrug-resistant cancer cells.
as §1, §2
Selectivity towards multidrug-resistant cells is expressed as the ratio of the IC50 value measured in the parental MES-SA and multidrug-resistant MES-SA/Dx5 cell line (Selectivity Ratio, SR).
A novel characteristic of the compounds presented in this invention is that they exert their selective cytotoxicity at low IC50 values. Simultaneous toxicity and selectivity towards multidrug-resistant cancer cells is reflected by the Activity Index (AI) of the compounds, which is the ratio of the selectivity ratio (SR) and the IC50 value on the resistant cell line.

For series [3], the system named is MDCK II and MDCK II B1 cell lines. As to the kind of experiment: Selective toxicity towards MDCK II and MDCK II B1 cell lines. Type of series: cell-based, canine. As to conditions: MDCK II versus MDCK II B1. How it is done: as §2
(§3) Data on selective toxicity (expressed as Selectivity Ratio, SR) in two MDR models engineered by retroviral transfection of P-glycoprotein (A431/A431-B1 and MDCK II/MDCK II B1 cell lines) are presented in Table 3 and Table 4.
(§4) A431 is a human epidermoid carcinoma cell line. Its derivative, the A431-B1 cell line expresses P-gp due to retroviral transfection of the mdr1 gene Türk, D. et al (Türk, D. et al., 2009). MDCK II is a canine kidney cell line. MDCK II B1 was created by inserting the mdr1 gene with transposons [Pape V F S et al. 2015] Both cell express P-gp stably, and show a stable MDR phenotype. Culture conditions were identical as in the case of MES-SA cells.

For a further series, the system named is MES-SA/Dx5 cells. The series can be described thus: Sensitivity of MES-SA/Dx5 cells to doxorubicin after a single treatment. Format: cell-based, human. As to conditions: after treatment with a single dose (FIG. 3). An excerpt: The above treatment with compounds of the general Formula I results in a new, stable phenotype, with the complete resensitization of cells to conventional chemotherapy consisting of P-glycoprotein substrates such as doxorubicin (FIG. 3).
Curves show the sensitivity of MES-SA/Dx5 cells (P-gp overexpressing cell line established from MES-SA) to doxorubicin before and after treatment with a single dose of a state of the art compound (NSC693872) and two compounds relating to this invention (Example compounds No. 9 and No. 17). The sensitivity of MES-SA cells is shown as a reference (P-gp-negative parental cell line). […] (Values indicate the IC50 values (μM) derived from the cytotoxicity curves).

In series [4] the test system is A431 and A431-B1 cell lines. As to the kind of experiment: Selective toxicity in A431 and A431-B1 cell lines. Format: cell-based, human. The following applies: A431 versus P-gp-transfected A431-B1. How it is done:
as §2, §3, §4

In a further series the test system is MES-SA/Dx5 cell line. The series can be described thus: Cytotoxicity, PrestoBlue cell viability assay, MES-SA/Dx5. Type of series: cell-based. As to conditions: Homo sapiens. As to the method:
as §1, §2

The subject of series [5] is MES-SA and MES-SA/Dx5 cells. As to the kind of experiment: Selective toxicity in the presence of the P-gp inhibitor tariquidar. Format: cell-based, human. The following applies: for SR (TQ): selectivity ratio in the presence of tariquidar (1 μM); for Selective toxicity in the presence of P-gp inhibitors: tariquidar. How it is done: In the presence of tariquidar (an inhibitor of P-gp function), the toxicity of the compounds selectively diminishes in multidrug-resistant MES-SA/Dx5 cells, while the toxicity is unchanged against parental MESSA cells, which is reflected by a decrease in the selectivity ratio (SR (TQ)).
To investigate the contribution of P-glycoprotein to the cytotoxic effect of a compound, cell survival was measured in the presence of the P-glycoprotein inhibitor tariquidar (1 μM). Tariquidar (CAS 206873-63-4) can be obtained e.g. from Selleck, Houston, USA.

Series [6] has as its system P-gp-expressing MES-SA/Dx5 cells. The series can be described thus: P-gp switch assay (Calcein AM). Format: cell-based, human. As to conditions: for Fraction of P-gp-negative cells (P3) in the population / Fraction of P-gp-positive cells (P4) in the population: MES-SA/Dx5, single dose at IC20 (killing 80% of the cells), surviving population at 80% confluence, Calcein AM; for Loss of P-gp expression in MES-SA/Dx5 cells: single treatment (FIG. 1, Table 6). As to the method: One million P-gp-expressing MES-SA/Dx5 cells were plated in a T25 cell culture flask. After 24 hours the compound of interest was added directly to the cells at a concentration corresponding to the IC20 value (killing 80% of the cells). After 5 days the culture media was removed, the cells were washed with PBS and the culture medium was exchanged. Cells were monitored daily and the recovery was recorded. The medium was changed every 5 days until the confluence of the cells reached 80%. At 80% confluence the cells were removed by gentle trypsinization, counted by an automated cell counter and stained with Calcein AM, a cellular dye able to detect the function of P-gp (Homolya 1993). P-gp-positivity was evaluated based on the ability of P-gp-expressing cells to extrude Calcein AM.

The subject of series [7] is ABCB1-overexpressing and parental HEK293 cells. The following applies: cited from earlier work.
The subject of series [8] is primary cells from doxorubicin resistant brca1-/-/p53-/- spontaneous mouse mammary carcinoma. As to the kind of experiment: Calcein assay of functional P-gp in primary tumor cells from doxorubicin resistant mammary carcinoma. Format: cell-based. The following applies: single treatment, calcein assay (FIG. 4D). The text has this: Tumor pieces derived from Brca1−/−;p53−/− FVB mouse mammary tumors were transplanted orthotopically into the mammary fat pad of wild type FVB mice.
As described by Rottenberg et al. (Pajic et al. 2009), treatment with several cycles of the maximum tolerable dose of doxorubicin invariably lead to drug resistance mediated by the moderate upregulation of Mdr1a and/or Mdr1b (FIG. 4A). Primary cultures from resistant tumors were established. In just 10 passages the culture was depleted of stromal components (FIG. 4B).
Functional expression of P-gp in the primary cells was evaluated by the calcein assay.

[9] abbreviates: MES-SA / MES-SA/Dx5, without tariquidar (Table 5).
[10] abbreviates: MES-SA/Dx5 (Table 2b), read-out: IC50 (μM) Dx5.
Where [11] appears, read: Mes-sa/Dx5 cell line, PrestoBlue assay, 72 hours (Table 1), read-out: IC50.
Setting [12] is: multidrug-resistant MES-SA/Dx5 cell line (Table 2a), read-out: IC50 (nM) in MES-SA/Dx5 cell line.

Molecules are shown by their SMILES. Like-named read-outs stand apart in the source and are kept apart here.

As to `CCN(CC)Cc1ccc2cccnc2c1O` [NSC693872, 7-(N,N-diethylaminomethyl)quinolin-8-ol, reference compound], the selectivity in series [1] is approximately 3.90. For the same compound, the IC50 in the series on MES-SA cell line stood at 7810 nM; with MES-SA/Dx5 cell line (setting [10]), 1.58 µM; with MES-SA/Dx5 cell line (setting [11]), 1.58 µM; in the series with MES-SA/Dx5 cell line (setting [12]), 1.58 µM. In addition, the SR in series [2] (MES-SA / MES-SA/Dx5 (Table 2b)) and in series [2] (setting [9]) was 4.9 throughout. The “Selectivity Ratio (SR) (MDCK II/MDCK II B1)” value in series [3] was 3.1. Moreover, the “Resensitization of MES-SA/Dx5 cells to doxorubicin” value in the series on MES-SA/Dx5 cells was “not sufficient to influence the resistance of the cells to doxorubicin”. Further, the “Selectivity Ratio (SR) (A431/A431-B1)” value in series [4] stood at 1.9. The “SR (TQ)” value in series [5] was 2.6. Further, in series [5], the “Selective toxicity in the presence of P-gp inhibitors” value is given as “retain a partial selective toxicity”. Moreover, the “Fraction of P-gp-negative cells (P3) in the population” value (shortened to “Fraction of P-gp-negative cells (P3)”) in [6] is given as 7.8%. Besides, in series [6], the “Fraction of P-gp-positive cells (P4) in the population” value (from here on “Fraction of P-gp-positive cells (P4)”) was 92.2%. Besides, the “Loss of P-gp expression in MES-SA/Dx5 cells” value in [6] is “insignificant loss”.

`Cl.Oc1c(CN2CCCC2)ccc2cccnc12` [NSC693871, 7-(pyrrolidin-1-ylmethyl)quinolin-8-ol hydrochloride, reference compound]: the selectivity result is “about 8.48” in series [1] and approximately 10 in series [7]. For the same compound, the IC50 in the series on MES-SA cell line stood at 6250 nM; in the series with MES-SA/Dx5 cell line (setting [10]), 1.47 µM; in the series with MES-SA/Dx5 cell line (setting [11]), 1.47 µM; in the series with MES-SA/Dx5 cell line (setting [12]) it was 1.47 µM. For the same compound, the SR in series [2] (MES-SA / MES-SA/Dx5 (Table 2b)) and in series [2] (setting [9]) was 4.2 each time. For the same compound, the “Selectivity Ratio (SR) (MDCK II/MDCK II B1)” value in [3] turned out to be 4.4. For the same compound, in series [4], the “Selectivity Ratio (SR) (A431/A431-B1)” value was 3.8. Moreover, the “SR (TQ)” value in series [5] turned out to be 1.4. The “Selective toxicity in the presence of P-gp inhibitors” value in [5] is reported as “retain a partial selective toxicity”. The “Fraction of P-gp-negative cells (P3)” value in series [6] is given as 9.1%. Moreover, the “Fraction of P-gp-positive cells (P4)” value in [6] is given as 90.9%. The “Loss of P-gp expression in MES-SA/Dx5 cells” value in series [6] was “insignificant loss”.

In turn, `COc1ccc(CNCc2cc(Br)c3cccnc3c2O)c(OC)c1` [Example 9, 5-Bromo-7-(((2,4-dimethoxybenzyl)amino)methyl)quinolin-8-ol] displayed a melting point of 146 to 148 °C. In addition, the IC50 with MES-SA cell line amounted to 2260 nM. Besides, in series [8], the “P-gp efflux capacity of primary tumor cells” value is recorded as “efflux capacity of the cells could be eradicated by a single treatment”. Further, the SR in series [2] (MES-SA / MES-SA/Dx5 (Table 2b)) was 20.4. Besides, in series [2] (setting [9]), the SR turned out to be 20.4. The “Selectivity Ratio (SR) (MDCK II/MDCK II B1)” value in [3] is reported as 16.8. Moreover, in the series with MES-SA/Dx5 cells, the “Resensitization of MES-SA/Dx5 cells to doxorubicin” value is on record as “sufficient to resensitize MES-SA/Dx5 cells to doxorubicin”. The IC50 with MES-SA/Dx5 cell line (setting [10]) turned out to be 0.12 µM. Moreover, the IC50 in the series on MES-SA/Dx5 cell line (setting [11]) was 0.118 µM. The IC50 in the series with MES-SA/Dx5 cell line (setting [12]) was determined as 0.118 µM. Also, the “SR (TQ)” value in [5] came out at 1.8. In addition, in [6], the “Fraction of P-gp-negative cells (P3)” value is 99.0% and the “Fraction of P-gp-positive cells (P4)” value is recorded as 1.0%.

What is called melting point is the temperature, or range, at which the solid turns liquid.
